{
  "source": "patent US20240230638A9",
  "about": "“SMALL MOLECULE SCREENING ASSAY FOR DIGITAL MICROFLUIDIC PLATFORM” (NICOYA LIFESCIENCES, INC., priority 2021, published 2024)",
  "origin": "cited, not measured here",
  "data": [
    {"conditions": "measure of hydrophobicity, literature values", "values": [
      {"compound": "NS(=O)(=O)c1ccccc1", "note": "[Benzenesulfonamide]", "octanol-water partitioning coefficients (logKow)": 0.31},
      {"compound": "CC(C)/N=c1\\cc2n(-c3ccc(Cl)cc3)c3ccccc3nc-2cc1Nc1ccc(Cl)cc1", "note": "[Clofazimine]", "octanol-water partitioning coefficients (logKow)": 6.3},
      {"compound": "O=C(O)c1ccccc1Nc1cccc(C(F)(F)F)c1", "note": "[Flufenamic acid]", "octanol-water partitioning coefficients (logKow)": 5.19},
      {"compound": "CC(C)Cc1ccc(C(C)C(=O)O)cc1", "note": "(stereo not shown) [Ibuprofen]", "octanol-water partitioning coefficients (logKow)": 3.97}
    ]}
  ]
}
